Source: ChEMBL document CHEMBL4376816, “Discovery of the Oral Leukotriene C4 Synthase Inhibitor (1S,2S)-2-({5-[(5-Chloro-2,4-difluorophenyl)(2-fluoro-2-methylpropyl)amino]-3-methoxypyrazin-2-yl}carbonyl)cyclopropanecarboxylic Acid (AZD9898) as a New Treatment for Asthma” (J Med Chem, 2019)
Values after ≈ are worked out from the molar mass of the structure shown. Active and inactive are the calls of the source. The calls are words filed in the database; no cut-off is given here.

Key:
[1] = biological target: T1, Potassium voltage-gated channel subfamily KQT member 1 (Homo sapiens, UniProt P51787); test: Inhibition of human KvLQT1 expressed in CHOK1 cells at < 33 uM at -80 mV holding potential by Ionwork-based analysis; assay type: cell-based
T1 sequence (P51787 whole entry): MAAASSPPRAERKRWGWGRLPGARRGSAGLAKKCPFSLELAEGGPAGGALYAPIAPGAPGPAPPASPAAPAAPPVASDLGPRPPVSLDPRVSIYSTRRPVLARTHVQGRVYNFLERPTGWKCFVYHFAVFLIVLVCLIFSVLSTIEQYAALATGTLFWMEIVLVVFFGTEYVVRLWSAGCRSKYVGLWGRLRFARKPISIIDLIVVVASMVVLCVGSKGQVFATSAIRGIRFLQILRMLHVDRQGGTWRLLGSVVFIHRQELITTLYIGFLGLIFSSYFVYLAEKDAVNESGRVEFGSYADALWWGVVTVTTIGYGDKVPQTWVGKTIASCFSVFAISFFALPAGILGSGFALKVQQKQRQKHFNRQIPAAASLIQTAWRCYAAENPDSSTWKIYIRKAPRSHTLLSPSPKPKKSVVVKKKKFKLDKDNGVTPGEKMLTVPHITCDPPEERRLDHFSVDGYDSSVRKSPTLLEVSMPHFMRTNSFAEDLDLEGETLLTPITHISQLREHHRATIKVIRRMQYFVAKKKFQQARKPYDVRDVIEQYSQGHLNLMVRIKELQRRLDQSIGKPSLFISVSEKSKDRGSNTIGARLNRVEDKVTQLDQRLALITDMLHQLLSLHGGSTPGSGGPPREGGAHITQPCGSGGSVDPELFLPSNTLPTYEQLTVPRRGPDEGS

[2] = Clearance in Han Wistar rat at 0.5 mg/kg, iv or 1 mg/kg, po after 24 hrs; assay type: ADME, organism-based; details: in vivo
[3] = Fraction unbound in human plasma by equilibrium dialysis based LC-MS analysis; assay type: ADME, cell-free
[4] = Clearance in cynomolgus monkey at 1 mg/kg, iv or 2 mg/kg, po after 48 hrs; assay type: ADME, organism-based, Macaca fascicularis; details: in vivo
[5] = Oral bioavailability in cynomolgus monkey at 2 mg/kg after 48 hrs; assay type: ADME, organism-based, Macaca fascicularis; details: in vivo
[6] = biological target: T2, Leukotriene C4 synthase (Homo sapiens) (UniProt Q16873)
T2 sequence (whole entry): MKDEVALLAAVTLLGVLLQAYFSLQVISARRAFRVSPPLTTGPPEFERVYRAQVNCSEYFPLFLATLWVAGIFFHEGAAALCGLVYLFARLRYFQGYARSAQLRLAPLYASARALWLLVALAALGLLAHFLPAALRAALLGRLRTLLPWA

[7] = biological target: T2, Leukotriene C4 synthase (Homo sapiens); test: Inhibition of LTC4S in healthy human whole blood assessed as inhibition of calcium ionophore A23187 stimulated cysteinyl leukotrienes production preincuabted for 30 mins followed by calcium ionophore stimulation and measured after 10 mins by LC-MS analysis; assay type: tissue-based
[8] = Toxicity in rat assessed as liver hypertrophy at 100 mg/kg, po after 7 days; assay type: organism-based; details: in vivo
Cytochrome P450 2D6 = Cytochrome P450 2D6 (Homo sapiens, UniProt P10635); test: Inhibition of recombinant human CYP2D6 using coumarin based substrate by fluorescence assay; assay type: ADME
Sequence of Cytochrome P450 2D6 (P10635 whole entry): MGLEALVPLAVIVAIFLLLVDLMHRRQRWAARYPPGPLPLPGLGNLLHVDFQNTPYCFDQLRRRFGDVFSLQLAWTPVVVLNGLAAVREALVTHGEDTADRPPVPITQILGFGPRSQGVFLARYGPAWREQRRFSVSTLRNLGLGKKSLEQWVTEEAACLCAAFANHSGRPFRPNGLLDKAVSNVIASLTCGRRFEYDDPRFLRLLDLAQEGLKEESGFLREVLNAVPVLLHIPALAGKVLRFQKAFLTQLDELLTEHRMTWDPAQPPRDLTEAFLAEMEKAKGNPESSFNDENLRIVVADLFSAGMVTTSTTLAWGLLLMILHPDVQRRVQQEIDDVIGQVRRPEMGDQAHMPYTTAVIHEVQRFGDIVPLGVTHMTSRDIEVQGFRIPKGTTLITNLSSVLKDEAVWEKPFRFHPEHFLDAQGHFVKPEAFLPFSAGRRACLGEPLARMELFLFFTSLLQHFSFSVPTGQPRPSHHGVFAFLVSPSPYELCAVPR

Cytochrome P450 2C19 = Cytochrome P450 2C19 (Homo sapiens, UniProt P33261); test: Inhibition of recombinant human CYP2C19 using coumarin based substrate by fluorescence assay; assay type: ADME
Sequence of Cytochrome P450 2C19 (P33261 whole entry): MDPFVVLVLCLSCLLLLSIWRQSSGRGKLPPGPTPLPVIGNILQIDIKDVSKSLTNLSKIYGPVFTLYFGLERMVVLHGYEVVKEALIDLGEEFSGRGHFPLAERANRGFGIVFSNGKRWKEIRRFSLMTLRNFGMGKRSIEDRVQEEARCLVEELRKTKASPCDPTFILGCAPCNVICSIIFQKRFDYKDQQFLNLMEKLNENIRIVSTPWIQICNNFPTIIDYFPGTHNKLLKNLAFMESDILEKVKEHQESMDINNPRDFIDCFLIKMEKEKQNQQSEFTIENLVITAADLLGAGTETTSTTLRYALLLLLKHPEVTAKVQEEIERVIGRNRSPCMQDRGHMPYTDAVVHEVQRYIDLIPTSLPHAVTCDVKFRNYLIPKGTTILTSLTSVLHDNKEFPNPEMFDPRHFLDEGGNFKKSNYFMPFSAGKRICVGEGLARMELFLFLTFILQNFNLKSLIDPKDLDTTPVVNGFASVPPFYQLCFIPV

[9] = biological target: T2, Leukotriene C4 synthase (Homo sapiens); test: Inhibition of LTC4S in asthmatic human whole blood assessed as inhibition of calcium ionophore A23187 stimulated cysteinyl leukotrienes production preincuabted for 30 mins followed by calcium ionophore stimulation and measured after 10 mins by LC-MS analysis; assay type: tissue-based
[10] = Volume of distribution at steady state in Beagle dog at 1 mg/kg, iv infusion or 2 mg/kg, po via gavage after 48 hrs; assay type: ADME, organism-based, Canis lupus familiaris; details: in vivo, read-out: Vdss
[11] = Oral bioavailability in Han Wistar rat at 1 mg/kg after 24 hrs; assay type: ADME, organism-based; details: in vivo
[12] = Fraction unbound in Beagle dog plasma by equilibrium dialysis based LC-MS analysis; assay type: ADME, cell-free, Canis lupus familiaris
[13] = Effective half life in Han Wistar rat at 0.5 mg/kg, iv or 1 mg/kg, po after 24 hrs; assay type: ADME, organism-based; details: in vivo, read-out: t1/2eff (converted)
[14] = Octanol/Sodium phosphate buffer partition coefficient, log D of compound at pH 7.4 at 1 mg incubated for overnight under shaking condition by LC-MS/MS analysis; assay type: physicochemical
[15] = Cmax in po dosed rat at NOAEL measured after 7 days; assay type: ADME, organism-based; parameters: route oral; details: in vivo
Rattus norvegicus = test: In vivo inhibition of LTC4S in po dosed Sprague-Dawley rat assessed as unbound drug concentration required for inhibition of calcium ionophore A23187-induced cysteinyl leukotrienes production in BAL fluid by LC-MS/MS analysis; assay type: functional
[16] = Thermodynamic solubility of compound in pH 7.4 PBS at 1 mg/ml incubated for 24 hrs under shaking condition by LC-MS/MS analysis; assay type: physicochemical; details: read-out: Therm_solubility
[17] = Effective half life in Beagle dog at 1 mg/kg, iv infusion or 2 mg/kg, po via gavage after 48 hrs; assay type: ADME, organism-based, Canis lupus familiaris; details: in vivo, read-out: t1/2eff (converted)
[18] = Clearance in Beagle dog at 1 mg/kg, iv infusion or 2 mg/kg, po via gavage after 48 hrs; assay type: ADME, organism-based, Canis lupus familiaris; details: in vivo
[19] = Volume of distribution at steady state in cynomolgus monkey at 1 mg/kg, iv or 2 mg/kg, po after 48 hrs; assay type: ADME, organism-based, Macaca fascicularis; details: in vivo, read-out: Vdss
Blood = test: Effect on arachidonic acid pathway in calcium ionophore A23187-stimulated healthy human whole blood assessed as increase in lipoxin level preincubated for 30 mins followed by calcium ionophore A23187 stimulation and measured after 60 mins by LC-MS analysis; assay type: functional, tissue-based
[20] = Fraction unbound in Sprague-Dawley rat plasma by equilibrium dialysis based LC-MS analysis; assay type: ADME, cell-free

For `COc1nc(N(CC(C)(C)F)c2cc(Cl)c(F)cc2F)cnc1C(=O)[C@H]1C[C@@H]1C(=O)O` [AZD-9898], the “inhibition (INH)” value [1] was “Not Active”, the clearance [2] was 2.3 mL/min/kg and the fraction unbound [3] was 0.036. It also gave a clearance [4] of 0.6 mL/min/kg, a bioavailability [5] of 90% and a fIC50 [6] of 6.2 nM. For the same compound, the inhibition [7] was “Active”, the Activity [8] was “Non-Toxic” and the IC50 (Cytochrome P450 2D6) was > 30 µM. For the same compound, the IC50 (Cytochrome P450 2C19) was > 30 µM, the inhibition [9] was “Active” and the Vd [10] was 1 L/kg. For the same compound, the bioavailability [11] was 100%, the fraction unbound [12] was 0.059 and the half-life [13] was 26 h. For the same compound, the logD [14] was 1.1, the Cmax at […] [15] was 349 µM and the fEC50 (Rattus norvegicus) was 34 nM. It also gave a solubility thermodynamic at 24 h [16] of 2080 µM (≈ 952 µg/mL), a half-life [17] of 6.1 h and a clearance [18] of 1.8 mL/min/kg. The Vd [19] was 0.6 L/kg, the Activity (Blood) was “Dose-dependent effect” and the fraction unbound [20] was 0.025.
